We go through 20 molecules from patent US9573961B2, “Inhibitors of the renal outer medullary potassium channel” (Merck Sharp & Dohme Corp., priority 2012, dated 2017).

For test [1], the target named is hROMK (hKir1.1) (Homo sapiens (Human), UniProt P48048). Nature of the test: Thallium Flux Assay (ROMK channel functional thallium flux, FLIPR-Tetra). Type of test: cell-based. The note with it: HEK293 cells stably expressing hROMK (hKir1.1); read-out: Thallium Flux IC50. The method in brief: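 HEK293 cells stably expressing hROMK loaded with FluxOR dye for 90 min, then incubated with compound for 30 min at 23-25 °C. Normalized to a 3 μM standard ROMK inhibitor as % fluorescence change.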

The target of test [2] is Kir1.1 (ROMK1) (Homo sapiens (Human), UniProt P48048). Put plainly: Electrophysiology Assay (whole cell voltage clamp, IonWorks Quattro). Type of test: cell-based. The note with it: block during voltage step to 0 mV. The method in brief:
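CHO cells stably expressing the channel, induced overnight with 1 mM sodium butyrate, were recorded in amphotericin-perforated patch mode. The test pulse was a 100 ms step to 0 mV from −70 mV, then a −70 to +70 mV ramp, applied before and after a 6 min compound incubation. Current amplitudes were compared.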
(In general: In patch-clamp work, channel activity is measured electrically.)

[3] abbreviates: Electrophysiology IC50, Chinese hamster ovary cells stably expressing Kir1.1.
The mark [4] stands for this setting: Chinese hamster ovary cells stably expressing Kir1.1, read-out: Electrophysiology IC50.

Like-named read-outs stand apart in the source and are kept apart here.

Chain of hROMK (hKir1.1) (P48048 whole entry): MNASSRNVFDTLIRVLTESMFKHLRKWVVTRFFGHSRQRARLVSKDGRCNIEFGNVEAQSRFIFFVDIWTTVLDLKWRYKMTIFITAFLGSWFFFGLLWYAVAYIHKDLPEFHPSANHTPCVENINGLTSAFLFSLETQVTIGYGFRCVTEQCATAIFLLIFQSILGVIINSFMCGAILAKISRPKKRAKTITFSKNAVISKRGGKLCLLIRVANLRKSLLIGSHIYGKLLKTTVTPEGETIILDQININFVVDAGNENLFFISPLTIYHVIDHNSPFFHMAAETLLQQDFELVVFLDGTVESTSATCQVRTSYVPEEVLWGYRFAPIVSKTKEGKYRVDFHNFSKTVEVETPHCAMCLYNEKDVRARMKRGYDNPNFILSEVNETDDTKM
Chain of Kir1.1 (ROMK1) (P48048 whole entry): as above

Broadly, the IC50 is the concentration at which inhibition is half-maximal. Regarding `Cc1c([C@H]2CN3CCN(C(=O)Cc4ccc(-n5cnnn5)cc4)C[C@H]3CN2)ccc(F)c1C#N` [Example 101], the IC50 was found to be 60 nM in test [1] and 50 nM in test [2] (setting [3]).

`Cc1c([C@@H]2CN3CCN(C(=O)Cc4cccc(-n5cnnn5)c4)C[C@H]3CO2)ccc(F)c1C#N` [Example 47, 6-fluoro-2-methyl-3-[(3R,9aS)-8-{[3-(1H-tetrazol-1-yl)phenyl]acetyl}octahydropyrazino[2,1-c][1,4]oxazin-3-yl]benzonitrile]: the concentration for half-maximal inhibition (IC50) was found to be 300 nM in test [1] and 90 nM in test [2] (setting [4]).

Turning to `Cc1c([C@@H]2CN3CCN(C(=O)Cc4ccc(-n5cnnn5)cc4)C[C@H]3CO2)ccc2nonc12` [Example 76, (3R,9aS)-3-(4-methyl-2,1,3-benzoxadiazol-5-yl)-8-{[4-(1H-tetrazol-1-yl)phenyl]acetyl}octahydropyrazino[2,1-c][1,4]oxazine], the IC50 in test [1] and in test [2] (setting [4]) was 220 nM throughout.

As to `Cc1c([C@H]2CN3CCN(C(=O)C4CCc5cc(-n6cnnn6)ccc54)C[C@H]3CO2)ccc(F)c1C#N` (single isomer, unassigned) [Example 98], the IC50 in test [1] worked out at 170 nM; in test [2] (setting [4]), 140 nM.

With `COc1cc([C@H]2CN3CCN(C(=O)C4CCc5cc(-n6cnnn6)ccc54)C[C@H]3CO2)ccc1C#N` (mixture of isomers) [Example 66, 2-methoxy-4-[(3S,9aS)-8-{[5-(1H-tetrazol-1-yl)-2,3-dihydro-1H-inden-1-yl]carbonyl}octahydropyrazino[2,1-c][1,4]oxazin-3-yl]benzonitrile], the IC50 in test [1] was found to be 370 nM; in test [2] (setting [4]), 490 nM.

With `COc1cc(CC(=O)N2CCN3C[C@@H](c4ccc5c(c4)CCOC5=O)OC[C@@H]3C2)ccc1C#N` [Example 29, 2-methoxy-4-{2-oxo-2-[(3R,9aS)-3-(1-oxo-3,4-dihydro-1H-isochromen-6-yl)hexahydropyrazino[2,1-c][1,4]oxazin-8(1H)-yl]ethyl}benzonitrile], the values for the IC50 in test [1] and in test [2] (setting [3]) were 300 nM and 130 nM, respectively.

For the molecule `O=C1OCc2c1ccc([C@@H]1CN3CCN(C(=O)Cc4ccc(-n5cnnn5)cc4)C[C@H]3CO1)c2Cl` [Example 20, 4-chloro-5-[(3R,9aS)-8-{[4-(1H-tetrazol-1-yl)phenyl]acetyl}octahydropyrazino[2,1-c][1,4]oxazin-3-yl]-2-benzofuran-1(3H)-one], the half-maximal inhibitory concentration (IC50) in test [1] was found to be 580 nM; in test [2] (setting [3]), 60 nM.

On to `Cc1c([C@H]2CN3CCN(C(=O)Cc4ccc(-n5cnnn5)cc4)C[C@H]3CN2)ccc2c1COC2=O` [Example 100], for which the IC50 came out at 430 nM in test [1] and 250 nM in test [2] (setting [3]).

As to `Cc1c([C@@H]2CN3CCN(C(=O)C4CCCc5cc(-n6cnnn6)ccc54)C[C@H]3CO2)csc1C#N` (single isomer, unassigned) [Example 96], the half-maximal inhibitory concentration (IC50) in test [1] amounted to 460 nM; in test [2] (setting [4]), 190 nM.

Consider `Cc1cc(F)c(C#N)cc1[C@@H]1CN2CCN(C(=O)Cc3ccc(-n4cnnn4)cc3)C[C@H]2CO1` [Example 38, 2-fluoro-4-methyl-5-[(3R,9aS)-8-{[4-(1H-tetrazol-1-yl)phenyl]acetyl}octahydropyrazino[2,1-c][1,4]oxazin-3-yl]benzonitrile], for which the half-maximal inhibitory concentration (IC50) came out at 110 nM in test [1] and 180 nM in test [2] (setting [4]).

As for `COc1cc(CC(=O)N2CCN3C[C@@H](c4ccc5c(c4)COC5=O)OC[C@@H]3C2)c(F)cc1C#N` [Example 10, 5-fluoro-2-methoxy-4-{2-oxo-2-[(3R,9aS)-3-(1-oxo-1,3-dihydro-2-benzofuran-5-yl)hexahydropyrazino[2,1-c][1,4]oxazin-8(1H)-yl]ethyl}benzonitrile], the 50% inhibitory concentration (IC50) in test [1] came out at 130 nM; in test [2] (setting [3]), 90 nM.

For `Cc1c([C@@H]2CN3CCN(C(=O)C4CCc5cc(-n6cnnn6)ccc54)C[C@H]3CO2)ccc(F)c1C#N` (mixture of isomers) [Example 2B, 3-((3R,9aS)-8-(5-(1H-tetrazol-1-yl)-2,3-dihydro-1H-indene-1-carbonyl)octahydropyrazino[2,1-c][1,4]oxazin-3-yl)-6-fluoro-2-methylbenzonitrile], the values for the concentration for half-maximal inhibition (IC50) in test [1] and in test [2] (setting [4]) were 290 nM and 150 nM, respectively.

As to `COc1cc([C@@H]2CN3CCN(C(=O)C4CCc5cc(-n6cnnn6)ccc54)C[C@@H]3CO2)ccc1C#N` (stereo partly drawn) [Example 64, 2-methoxy-4-[(3R,9aR)-8-{[5-(1H-tetrazol-1-yl)-2,3-dihydro-1H-inden-1-yl]carbonyl}octahydropyrazino[2,1-c][1,4]oxazin-3-yl]benzonitrile], the IC50 amounted to 270 nM in test [1] and 210 nM in test [2] (setting [4]).

For `Cc1c([C@@H]2CN3CCN(C(=O)Cc4c(F)cc(-n5cnnn5)cc4F)C[C@@H]3CO2)ccc(F)c1C#N` [Example 53, 3-[(3R,9aR)-8-{[2,6-difluoro-4-(1H-tetrazol-1-yl)phenyl]acetyl}octahydropyrazino[2,1-c][1,4]oxazin-3-yl]-6-fluoro-2-methylbenzonitrile], the IC50 in test [1] was 180 nM; in test [2] (setting [4]), 110 nM.

With `Cc1c([C@H]2CN3CCN(C(=O)C4CCCc5cc(-n6cnnn6)ccc54)C[C@H]3CO2)csc1C#N` (single isomer, unassigned) [Example 97], the IC50 in test [1] was found to be 620 nM; in test [2] (setting [4]), 280 nM.

Regarding `Cc1c([C@@H]2CN3CCN(C(=O)Cc4cc(F)c(-n5cnnn5)cc4F)C[C@H]3CO2)ccc(F)c1C#N` [Example 55, 3-[(3R,9aS)-8-{[2,5-difluoro-4-(1H-tetrazol-1-yl)phenyl]acetyl}octahydropyrazino[2,1-c][1,4]oxazin-3-yl]-6-fluoro-2-methylbenzonitrile], the concentration for half-maximal inhibition (IC50) turned out to be 130 nM in test [1] and 100 nM in test [2] (setting [3]).

Turning to `COc1cc([C@@H]2CN3CCN(C(=O)Cc4ccc(-n5cnnn5)cc4)C[C@@H]3CO2)ccc1C#N` [Example 19, 2-methoxy-4-[(3R,9aR)-8-{[4-(1H-tetrazol-1-yl)phenyl]acetyl}octahydropyrazino[2,1-c][1,4]oxazin-3-yl]benzonitrile], the half-inhibitory concentration (IC50) in test [1] came to 170 nM; in test [2] (setting [3]), 70 nM.

As for `Cc1c([C@H]2CN3CCN(C(=O)Cc4ccc(-n5cnnn5)cc4)C[C@@H]3CO2)ccc2c1COC2=O` [Example 14, 4-methyl-5-[(3S,9aR)-8-{[4-(1H-tetrazol-1-yl)phenyl]acetyl}octahydropyrazino[2,1-c][1,4]oxazin-3-yl]-2-benzofuran-1(3H)-one], the half-inhibitory concentration (IC50) in test [1] worked out at 110 nM; in test [2] (setting [3]), 140 nM.

In the case of `COc1c([C@H]2CN3CCN(C(=O)Cc4ccc(-n5cnnn5)cc4)C[C@H]3CO2)ccc(F)c1C#N` [Example 33, 6-fluoro-2-methoxy-3-[(3S,9aS)-8-{[4-(1H-tetrazol-1-yl)phenyl]acetyl}octahydropyrazino[2,1-c][1,4]oxazin-3-yl]benzonitrile], the IC50 in test [1] amounted to 110 nM; in test [2] (setting [3]), 130 nM.

Take `COc1ccc([C@@H]2CN3CCN(C(=O)Cc4ccc(-n5cnnn5)cc4)C[C@H]3CO2)c(C)c1C#N` [Example 26, 6-methoxy-2-methyl-3-[(3R,9aS)-8-{[4-(1H-tetrazol-1-yl)phenyl]acetyl}octahydropyrazino[2,1-c][1,4]oxazin-3-yl]benzonitrile]: the half-inhibitory concentration (IC50) in test [1] stood at 140 nM; in test [2] (setting [4]), 260 nM.
